This note sets out measurements from the OligoGym collection.

For the data set, the target named is HSD17B13. The note with it: ASO, HepaRG.

After the bases stand the sugars from the 5' end (letter, count) and the backbone: PS all phosphorothioate, else s phosphorothioate and o phosphodiester by linkage. Methylation of C is not given here. e = 2'-O-(2-methoxyethyl) (MOE); k = constrained ethyl (cEt); d = 2'-deoxy (DNA); m = 2'-O-methyl

For ATGGAAACATGCTTGG (sugars k3 d10 k3, PS), the target mRNA inhibition (1 µM) was determined as 48%.

TTAGATTGCATAAGAG (sugars k3 d10 k3, PS) gave a target mRNA inhibition (1 µM) of 61%. Same read-out and setting: in the case of ACCTATGGTCTAACAC (sugars k3 d10 k3, PS) it was 14%. For the sequence GGCTTATGAAGTTAGT (sugars k3 d10 k3, PS), the target mRNA inhibition (1 µM) is 59%. On the same count and under the same terms, the same measure for ATATTCTGTGGCATGG (sugars k3 d10 k3, PS): 69%; for “GATATTCTGTGGCATG (sugars kkdddddddddkekek, PS)”: 52%.

TTAGAAGTCAGCCCAA (sugars k3 d10 k3, PS): the target mRNA inhibition (1 µM) was determined as 37%. On the same count and under the same terms, the same measure for “CTTGATGTAGTGGGAG (sugars kkdddddddddkekek, PS)”: 20%; for ATCAAAATGGTGGCGA (sugars k3 d10 k3, PS): 20%; for TTGAGCCTAAAATTGT (sugars k3 d10 k3, PS): 36%. Same read-out and setting: the same measure for GTCATTTAGAATACGC (sugars k3 d10 k3, PS): 46%; for TCCAGGTTGAGATAAA (sugars k3 d10 k3, PS): 70%. On the same count and under the same terms, in the case of ATTTTCAGATCCCGTT (sugars k3 d10 k3, PS) it was 67%. In the case of ACCTCAAATGTCTTGG (sugars k3 d10 k3, PS), the target mRNA inhibition (1 µM) stood at 17%. On the same count and under the same terms, the same measure for AATGCTACTTGAACAG (sugars k3 d10 k3, PS): 54%; for TTTGGTGAACCCAGTA (sugars k3 d10 k3, PS): 34%. On the same count and under the same terms, the same measure for CCGTTTTGGGCTAATG (sugars k3 d10 k3, PS): 58%; for GATAGTGAACATACAT (sugars k3 d10 k3, PS): 54%.

For the setting “1 µM”, TCTGATTACAGCATCA (sugars k3 d10 k3, PS) displayed a target mRNA inhibition of 48%. Where the note is “1 µM”, “AGTCGGTCACCTTTCA (sugars kkdddddddddkekek, PS)” came in with a target mRNA inhibition of 55%. Still for that read-out and setting: the same measure for “GTTAGAATAGTCTTCA (sugars k3 d9 k3 e1, PS)”: 71%; for “GTAAGTATTCCATCTA (sugars k3 d9 k3 e1, PS)”: 39%.

In the case of “TGCTGCTAGTGCCAAA (sugars kkdddddddddkekek, PS)”, the target mRNA inhibition (1 µM) is 40%. Same read-out and setting: in the case of “CTGCTGCTAGTGCCAA (sugars k3 d9 k3 e1, PS)” it was 66%; in that of TAACTACATGACCTGG (sugars k3 d10 k3, PS), 37%. Consider AGCTAGACAATTGCAA (sugars k3 d10 k3, PS), for which the target mRNA inhibition (1 µM) came to 30%.

For ATATACATCAACTCCT (sugars k3 d10 k3, PS), the target mRNA inhibition (1 µM) amounted to 43%. Same read-out and setting: in the case of GGATCTAGAACACTTG (sugars k3 d10 k3, PS) it was 32%.

Take GGTCAGTAGAGAGCAT (sugars k3 d10 k3, PS): the target mRNA inhibition (1 µM) turned out to be 79%. On the same count and under the same terms, the same measure for CTGTATTAAGACAGTT (sugars k3 d10 k3, PS): 41%; for AAAAATTGGCCTCCTG (sugars k3 d10 k3, PS): 41%; for GTTTTGCAAGTTTATC (sugars k3 d10 k3, PS): 73%. The same measure, in the same setting: in the case of “TAATAGCCAGTACAGT (sugars kkdddddddddkekek, PS)” it was 44%. Turning to GATTGTTACATCACCC (sugars k3 d10 k3, PS), the target mRNA inhibition is, setting by setting: (0.02 µM) 15%; (0.078 µM) 32%; (0.313 µM) 33%; (1 µM) 65%; (1.25 µM) 74%; (5 µM) 91%. Turning to GGTGGTAACGGTGATC (sugars k3 d10 k3, PS), the target mRNA inhibition (1 µM) was 31%. The sequence “TGCAGCATTGATTCGA (sugars k3 d9 k3 e1, PS)” had a target mRNA inhibition (1 µM) of 52%. Still for that read-out and setting: in the case of TAGAATTAAGGGCTAT (sugars k3 d10 k3, PS) it was 31%. For “GAGTGCATCTTAAGAT (sugars k3 d1 m1 d8 k3, PS)”, the target mRNA inhibition (1 µM) is 7%.

In the case of “GGTCACCTTTCATAAT (sugars k3 d9 k3 e1, PS)”, the target mRNA inhibition (1 µM) came to 49%. On the same count and under the same terms, in the case of GAAGATCGGCTGGATA (sugars k3 d10 k3, PS) it was 16%; in that of CACCGCGCTTATTAAT (sugars k3 d10 k3, PS), 7%.

With AAACATCTCTGGGACC (sugars k3 d10 k3, PS), the target mRNA inhibition runs as follows: (0.02 µM) 0%; (0.078 µM) 0%; (0.313 µM) 33%; (1.25 µM) 56%; (5 µM) 78%. The sequence CTAAAATTGTCTAAAC (sugars k3 d10 k3, PS) gave a target mRNA inhibition (1 µM) of 35%. Same read-out and setting: the same measure for “TAAGCTGAGAGTTCTA (sugars k3 d1 m1 d8 k3, PS)”: 27%.

CCCCAAACATGGATGT (sugars k3 d10 k3, PS) had a target mRNA inhibition (1 µM) of 62%. Take TCACCTGATTTAGAGA (sugars k3 d10 k3, PS): where the note is “1 µM”, the target mRNA inhibition was 13%. In the case of CATCTTAAGATACCCA (sugars k3 d10 k3, PS), the target mRNA inhibition (0.02 µM) is 0%; the target mRNA inhibition (0.078 µM) was 23%; the target mRNA inhibition (0.313 µM) turned out to be 46%; the target mRNA inhibition (1 µM) came to 76%; the target mRNA inhibition (1.25 µM) was 75%; the target mRNA inhibition (5 µM) came out at 90%. As to GCTCCATAATAATAGC (sugars k3 d10 k3, PS), where the note is “1 µM”, the target mRNA inhibition is 21%.

For the setting “1 µM”, TGAATGTAAAGGCTGG (sugars k3 d10 k3, PS) came in with a target mRNA inhibition of 38%. AAGTTTGTTAGAGTGC (sugars k3 d10 k3, PS) displayed a target mRNA inhibition (1 µM) of 74%. Same read-out and setting: in the case of ACATATGTGAAGAGCT (sugars k3 d10 k3, PS) it was 66%; in that of “GCATCTTAAGATACCC (sugars k3 d1 m1 d8 k3, PS)”, 65%; in that of ATGTTTATGTAAGCAC (sugars k3 d10 k3, PS), 70%.

Where the note is “1 µM”, GCCTAGTTACAAACCA (sugars k3 d10 k3, PS) displayed a target mRNA inhibition of 56%.

With GCCCATCCCCTAAGTT (sugars k3 d10 k3, PS), the target mRNA inhibition (1 µM) is 33%. On the same count and under the same terms, in the case of “TGTCCAGGTTGAGATA (sugars k3 d9 k3 e1, PS)” it was 45%. GTAGAATTGTCTGTTA (sugars k3 d10 k3, PS): the target mRNA inhibition (1 µM) amounted to 51%. The same measure, in the same setting: in the case of GATCTGAGTTACATTA (sugars k3 d10 k3, PS) it was 69%; in that of “ATGCTACTTGAACAGT (sugars k3 d9 k3 e1, PS)”, 50%. “AATTCACCTTGACTAA (sugars k3 d1 m1 d8 k3, PS)” gave a target mRNA inhibition (1 µM) of 0%. Regarding GTATGTTTATGTAAGC (sugars k3 d10 k3, PS), the target mRNA inhibition stood at 0% (0.02 µM); 16% (0.078 µM); 33% (0.313 µM); 80% (1 µM); 77% (1.25 µM); 87% (5 µM). TAATCTTGTGCTTGGA (sugars k3 d10 k3, PS) displayed a target mRNA inhibition (1 µM) of 54%. On the same count and under the same terms, in the case of TCTAAAGCAGGCTACT (sugars k3 d10 k3, PS) it was 32%. In the case of TATTCACCACGATTGT (sugars k3 d10 k3, PS), the target mRNA inhibition (1 µM) worked out at 2%. For CTTCACCAACGACTCC (sugars k3 d10 k3, PS), the target mRNA inhibition (1 µM) is 8%. Sequence “GCATTAATGCCACCCT (sugars kkdddddddddkekek, PS)” registered a target mRNA inhibition (1 µM) of 24%.

As to AGAGGCTAGGGAAATC (sugars k3 d10 k3, PS), for the setting “1 µM”, the target mRNA inhibition was found to be 63%.

In turn, TGAACTGAAACGATCC (sugars k3 d10 k3, PS) registered a target mRNA inhibition (1 µM) of 58%. The same measure, in the same setting: the same measure for CAGCATTGTAATCTTG (sugars k3 d10 k3, PS): 43%.

The sequence AATTATTTCTTGCGAG (sugars k3 d10 k3, PS) came in with a target mRNA inhibition (1 µM) of 16%. Same read-out and setting: in the case of “CTGGAACAATATGGGA (sugars kkdddddddddkekek, PS)” it was 33%. Same read-out and setting: in the case of CGTAACCATGCATTAA (sugars k3 d10 k3, PS) it was 68%.

Consider “AAGACATTCTAGCCTG (sugars k3 d9 k3 e1, PS)”, for which the target mRNA inhibition (1 µM) is 40%.

TATTATCAGGACTGAA (sugars k3 d10 k3, PS): the target mRNA inhibition (1 µM) turned out to be 63%. Same read-out and setting: in the case of CGATCCTATATACATC (sugars k3 d10 k3, PS) it was 33%. On the same count and under the same terms, in the case of “GAATGCTACTTGAACA (sugars kkdddddddddkekek, PS)” it was 48%. On to TTCTTATGTAATAGCC (sugars k3 d10 k3, PS), for which the target mRNA inhibition reads like this: (0.02 µM) 16%; (0.078 µM) 39%; (0.313 µM) 66%; (1 µM) 71%; (1.25 µM) 86%; (5 µM) 96%. On to “TGTAAGAGTCAGTATC (sugars kkdddddddddkekek, PS)”, for which the target mRNA inhibition (1 µM) is 35%. As to “TGCTGCTAGTGCCAAA (sugars k3 d9 k3 e1, PS)”, the target mRNA inhibition (1 µM) turned out to be 56%. On to “TGTAGTGGGAGTCGGA (sugars k3 d1 m1 d8 k3, PS)”, for which the target mRNA inhibition (1 µM) came to 50%. Same read-out and setting: the same measure for GCTTTGCAGCATTGAT (sugars k3 d10 k3, PS): 61%. In turn, “GATGCTCCATAATAAT (sugars k3 d1 m1 d8 k3, PS)” returned a target mRNA inhibition (1 µM) of 24%. Same read-out and setting: in the case of “TAAGCAGAATTGTGAA (sugars k3 d9 k3 e1, PS)” it was 52%.

In turn, GGCTATAACTGGAAGG (sugars k3 d10 k3, PS) gave a target mRNA inhibition (1 µM) of 52%. Still for that read-out and setting: the same measure for CATAGTTCAAATTGGA (sugars k3 d10 k3, PS): 39%. Under “1 µM”, TAAGGATCATTGCAGA (sugars k3 d10 k3, PS) gave a target mRNA inhibition of 0%.
